According to patent publication US8329390B2, “Detection of transmembrane potentials using N,N,N′-trialkyl thiobarbituric acid-derived polymethine oxonols” (priority 2004, dated 2012):

Experiment: Absorption and fluorescence spectral properties
Format: physicochemical
From the text: For all the syntheses, all starting materials and reagents were of the highest purity available (Aldrich Chemical Company, Milwaukee, Wis.) and used without further purification, except where noted. Solvents were HPLC grade (Fisher Scientific, Pittsburgh, Pa.) and were dried over activated molecular sieves. NMR spectra were acquired on a Varian Gemini 200 MHz spectrometer. Absorption and fluorescence spectra were taken respectively on a Cary 50 BIO and Varain Eclipse (Varian, Inc., Palo Alto, Calif.).

## CN1C(=O)C(=C/C=C/c2c(O)[nH]c(=S)n(C)c2=O)C(=O)N(C)C1=S [Compound 4]
  absorption maximum: 532 nm
  emission maximum: 555 nm
At 532 nm
  ext. coefficient: 175,000 M^−1 cm^−1
In octanol
  quantum yield: > 0.2
